Here are results for 8 compounds from ChEMBL document CHEMBL1201862, “PubChem BioAssay data set” (2004).

Some test systems named below: OVCAR-5; HT-29; SK-OV-3; DLD-1; SF-268; A549; KM12; M19-MEL; 786-0; LOX IMVI; SF-295; HCT-15; HOP-18; LXFL 529; UACC-62; OVCAR-4.
Common to all, as to assay: NCI tumour cell line growth inhibition, 48 h

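Assay format: 96-well plates, 48-hour exposure. Here, GI50 denotes the concentration required for 50% inhibition of growth.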 Activity calls are given as the source filed them. Cut-off read from the data, not from the text of the source: active = GI50 up to about 1.1 µM and inactive = higher.

For the compound `CCOC(=O)Nc1ccc(S(=O)(=O)OC)cc1.CCOC(=O)Nc1ccc(S(=O)(=O)OC)cc1.Nc1ncnc2c1ncn2C1OC(CO)C(O)C1O` (stereo not drawn), the GI50 was > 100 µM (inactive) with OVCAR-5; 26.3 µM (inactive) with HT-29; > 100 µM (inactive) with SK-OV-3; 33.1 µM (inactive) in the assay with DLD-1; > 100 µM (inactive) in the assay with SF-268; 34.3 µM (inactive) with A549. Further, the GI50 was 99.8 µM (inactive) in the assay with KM12; 21.9 µM (inactive) in the assay on M19-MEL; 21.5 µM (inactive) with 786-0; 17.8 µM (inactive) in the assay with LOX IMVI; > 100 µM (inactive) in the assay on SF-295; 34.2 µM in the assay with HCT-15. Also, the GI50 in the assay on HOP-18 was > 100 µM (inactive); with LXFL 529, > 100 µM (inactive); with UACC-62, > 100 µM (inactive); with OVCAR-4, 35.3 µM (inactive).
As for `O=C(CC1=Nc2nnc(CCCCCCCc3nnc4n3C(=O)C(CC(=O)c3ccc5ccccc5c3)=N4)n2C1=O)c1ccc2ccccc2c1`, the GI50 with OVCAR-5, in the assay on HT-29, with SK-OV-3, in the assay on DLD-1, in the assay with SF-268 and with A549 was > 100 µM (inactive) throughout. The GI50 in the assay with KM12 is > 100 µM (inactive); in the assay with M19-MEL it was > 100 µM (inactive); in the assay with 786-0, > 100 µM (inactive); in the assay with LOX IMVI, > 100 µM (inactive); in the assay with SF-295 it was > 100 µM (inactive); with HCT-15 it was over 100 µM. The GI50 with HOP-18, in the assay on LXFL 529, in the assay with UACC-62 and with OVCAR-4 was > 100 µM (inactive) in each case.
On to `COC(=O)/C(=N\Nc1nc(S)nn1N)C(C#N)c1ccc(Cl)cc1` (stereo not drawn), for which the GI50 in the assay on OVCAR-5, in the assay with HT-29, in the assay with SK-OV-3, in the assay with DLD-1, with SF-268 and with A549 was > 100 µM (inactive) throughout. Besides, the GI50 was > 100 µM (inactive) in the assay on KM12; > 100 µM (inactive) in the assay with M19-MEL; > 100 µM (inactive) in the assay with 786-0; > 100 µM (inactive) in the assay with LOX IMVI; > 100 µM (inactive) in the assay with SF-295; over 100 µM in the assay with HCT-15. For the same compound, the GI50 in the assay on HOP-18, in the assay with LXFL 529, with UACC-62 and in the assay on OVCAR-4 was > 100 µM (inactive) throughout.
With `COc1cc2c(cc1OC)-c1cc(OC)c(OC)cc1[C@H]1CN3CCC[C@@]3(O)C=C21`, the GI50 with OVCAR-5, in the assay on HT-29, in the assay with SK-OV-3, with DLD-1, with SF-268 and with A549 was < 0.0001 µM (active) in each case. For the same compound, the GI50 was < 0.0001 µM (active) in the assay on KM12; < 0.0001 µM (active) in the assay with M19-MEL; < 0.0001 µM (active) with 786-0; < 0.0001 µM (active) with LOX IMVI; < 0.0001 µM (active) in the assay with SF-295; under 0.0001 µM in the assay with HCT-15. For the same compound, the GI50 with HOP-18, in the assay on LXFL 529, in the assay on UACC-62 and in the assay on OVCAR-4 was < 0.0001 µM (active) in each case.
On to `CCC(=O)NCC1(c2c[nH]c3ccccc23)SCCS1`, for which the GI50 in the assay on OVCAR-5 is > 100 µM (inactive); in the assay with HT-29, 53 µM (inactive); with SK-OV-3 it was > 100 µM (inactive); with DLD-1, > 100 µM (inactive); in the assay with SF-268, > 100 µM (inactive); with A549 it was > 100 µM (inactive). Also, the GI50 in the assay with KM12 was > 100 µM (inactive); in the assay with M19-MEL, > 100 µM (inactive); in the assay with 786-0, > 100 µM (inactive); with LOX IMVI it was > 100 µM (inactive); in the assay with SF-295 it was > 100 µM (inactive); with HCT-15 it was over 100 µM. Moreover, the GI50 with HOP-18 is > 100 µM (inactive); with LXFL 529, > 100 µM (inactive); with UACC-62, 63.4 µM (inactive); in the assay on OVCAR-4 it was > 100 µM (inactive).
In the case of `NC1=NS(=O)(=O)Nc2nc(-c3ccc([N+](=O)[O-])cc3)[nH]c21`, the GI50 in the assay on OVCAR-5, in the assay on HT-29, in the assay with SK-OV-3, with DLD-1, with SF-268 and in the assay on A549 was > 100 µM (inactive) in each case. For the same compound, the GI50 in the assay on KM12 is > 100 µM (inactive); in the assay on M19-MEL, > 100 µM (inactive); in the assay on 786-0, > 100 µM (inactive); in the assay on LOX IMVI it was > 100 µM (inactive); in the assay on SF-295, > 100 µM (inactive); in the assay with HCT-15, over 100 µM. The GI50 in the assay on HOP-18, in the assay on LXFL 529, with UACC-62 and in the assay on OVCAR-4 was > 100 µM (inactive) in each case.
Consider `COC(=O)C1C2C=CC(C2)C1(C(=O)OC)[S+]([O-])CC12CCC(CC1O)C2(C)C` (stereo not drawn), for which the GI50 in the assay on OVCAR-5 was > 100 µM (inactive); with HT-29, > 100 µM (inactive); with SK-OV-3, > 100 µM (inactive); in the assay on DLD-1, 60.8 µM (inactive); with SF-268, > 100 µM (inactive); in the assay with A549, > 100 µM (inactive). The GI50 in the assay with KM12 was > 100 µM (inactive); in the assay on M19-MEL it was > 100 µM (inactive); with 786-0, > 100 µM (inactive); in the assay with LOX IMVI, 21.1 µM (inactive); in the assay with SF-295 it was > 100 µM (inactive); in the assay on HCT-15, 19.2 µM. In addition, the GI50 with HOP-18, in the assay on LXFL 529, with UACC-62 and in the assay on OVCAR-4 was > 100 µM (inactive) in each case.
For `CC(C)[C@@H]1C=C(c2ccccc2)c2ccccc2C1C(C#N)(C#N)C(C)C` (stereo partly drawn), the GI50 in the assay on OVCAR-5 was > 100 µM (inactive); in the assay on HT-29, 68.7 µM (inactive); in the assay on SK-OV-3 it was > 100 µM (inactive); with DLD-1 it was > 100 µM (inactive); with SF-268, > 100 µM (inactive); in the assay on A549 it was 79.4 µM (inactive). The GI50 with KM12 was > 100 µM (inactive); in the assay on M19-MEL, > 100 µM (inactive); in the assay with 786-0, > 100 µM (inactive); in the assay with LOX IMVI, > 100 µM (inactive); with SF-295, > 100 µM (inactive); in the assay with HCT-15 it was over 100 µM. For the same compound, the GI50 is > 100 µM (inactive) in the assay on HOP-18, > 100 µM (inactive) in the assay with LXFL 529, > 100 µM (inactive) in the assay on UACC-62 and 82.4 µM (inactive) in the assay with OVCAR-4.
